Source: US6048873A, “Tetrahdroquinolin-2-one 6 or 7-yl, tetrahdroquinilin-2-thione 6 or 7-yl pentadienoic acid and related derivatives having retinoid-like biological activity” (Allergan Sales, Inc., priority 1998, dated 2000)

Columns and labels:
RXRγ [1] = biological target: T1, RXRγ (Mus musculus, UniProt P28705); assay: RXRγ ligand binding (Table 1); conditions: RXR γ
T1 construct: expressed in transfected cells
T1 sequence (P28705 1-463): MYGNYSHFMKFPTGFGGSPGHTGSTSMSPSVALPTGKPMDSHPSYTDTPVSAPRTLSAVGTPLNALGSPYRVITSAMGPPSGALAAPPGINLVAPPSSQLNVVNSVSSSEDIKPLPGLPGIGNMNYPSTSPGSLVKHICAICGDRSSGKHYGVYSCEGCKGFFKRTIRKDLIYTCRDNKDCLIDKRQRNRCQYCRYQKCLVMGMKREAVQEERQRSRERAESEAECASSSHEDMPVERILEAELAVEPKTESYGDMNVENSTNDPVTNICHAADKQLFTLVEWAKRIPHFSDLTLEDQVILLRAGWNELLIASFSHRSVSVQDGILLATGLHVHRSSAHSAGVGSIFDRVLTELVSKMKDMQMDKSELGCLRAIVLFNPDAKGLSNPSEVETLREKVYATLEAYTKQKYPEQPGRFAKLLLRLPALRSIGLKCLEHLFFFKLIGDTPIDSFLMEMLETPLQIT
Source text: (§1) Other assays described below, measure the ability of the compounds of the present invention to bind to, and/or activate various retinoid receptor subtypes. When in these assays a compound binds to a given receptor subtype and activates the transcription of a reporter gene through that subtype, then the compound is considered an agonist of that receptor subtype. […] In the below described assays the ability of the compounds to bind to RARα, RARβ, RARγ, RXRα, RXRβ and RXRγ receptors, and the ability or inability of the compounds to activate transcription of a reporter gene through these receptor subtypes can be tested. […] However, some of the compounds of the invention may behave as retinoid antagonists or partial antagonists and/or as inverse agonists. Because of the complex distribution of the different retinoid receptors in various organs of the mammalian body partial agonists and partial antagonists and compounds which have the characteristics of both may lend themselves to particularly useful therapeutic applications and may avoid serious side effects of conventional retinoid drugs.
(§2) A holoreceptor transactivation assay and a ligand binding assay which measure the antagonist/agonist like activity of the compounds of the invention, or their ability to bind to the several retinoid receptor subtypes, respectively, are described in published PCT Application No. WO WO93/11755 (particularly on pages 30-33 and 37-41) published on Jun. 24, 1993, the specification of which is also incorporated herein by reference. A detailed experimental procedure for holoreceptor transactivations has been described by Heyman et al. Cell 68, 397-406, (1992); Allegretto et al. J. Biol. Chem. 268, 26625-26633, and Mangelsdorf et al. The Retinoids: Biology, Chemistry and Medicine, pp 319-349, Raven Press Ltd., New York, which are expressly incorporated herein by reference. The results obtained in this assay are expressed in EC50 numbers, as they are also in the chimeric receptor transactivation assay. The results of ligand binding assay are expressed in Kd numbers. […]

RXRα [2] = biological target: T2, RXRα (Homo sapiens, UniProt P19793); assay: RXRα receptor transactivation (Table 1); assay type: cell-based; conditions: RXR α; for Emax: read-out: % Eff
T2 construct: expressed in transfected cells
T2 sequence (P19793 1-462): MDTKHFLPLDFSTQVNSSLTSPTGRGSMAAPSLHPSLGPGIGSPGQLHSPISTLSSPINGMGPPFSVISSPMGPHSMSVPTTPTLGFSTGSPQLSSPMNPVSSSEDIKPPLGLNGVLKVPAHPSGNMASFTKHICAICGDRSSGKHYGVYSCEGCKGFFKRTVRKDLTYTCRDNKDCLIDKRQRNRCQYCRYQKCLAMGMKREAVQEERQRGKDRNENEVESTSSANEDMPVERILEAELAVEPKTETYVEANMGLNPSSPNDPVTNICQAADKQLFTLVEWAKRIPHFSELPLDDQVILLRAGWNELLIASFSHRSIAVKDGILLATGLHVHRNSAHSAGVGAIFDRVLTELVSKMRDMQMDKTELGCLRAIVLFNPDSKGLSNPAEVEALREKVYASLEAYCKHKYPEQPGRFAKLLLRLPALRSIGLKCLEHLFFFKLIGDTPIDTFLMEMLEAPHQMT
Source text: as §1
The specification of U.S. Pat. No. 5,455,265 is hereby expressly incorporated by reference.
(§3) A holoreceptor transactivation assay and a ligand binding assay which measure the antagonist/agonist like activity of the compounds of the invention, or their ability to bind to the several retinoid receptor subtypes, respectively, are described in published PCT Application No. WO WO93/11755 (particularly on pages 30-33 and 37-41) published on Jun. 24, 1993, the specification of which is also incorporated herein by reference. A detailed experimental procedure for holoreceptor transactivations has been described by Heyman et al. Cell 68, 397-406, (1992); Allegretto et al. J. Biol. Chem. 268, 26625-26633, and Mangelsdorf et al. The Retinoids: Biology, Chemistry and Medicine, pp 319-349, Raven Press Ltd., New York, which are expressly incorporated herein by reference. The results obtained in this assay are expressed in EC50 numbers, as they are also in the chimeric receptor transactivation assay. The results of ligand binding assay are expressed in Kd numbers. (See Cheng et al. Biochemical Pharmacology Vol. 22 pp 3099-3108, expressly incorporated herein by reference.)

RARγ = biological target: T3, RARγ (Homo sapiens, UniProt P13631); assay: RARγ ligand binding (Table 2); conditions: RAR γ
T3 sequence (P13631 1-454): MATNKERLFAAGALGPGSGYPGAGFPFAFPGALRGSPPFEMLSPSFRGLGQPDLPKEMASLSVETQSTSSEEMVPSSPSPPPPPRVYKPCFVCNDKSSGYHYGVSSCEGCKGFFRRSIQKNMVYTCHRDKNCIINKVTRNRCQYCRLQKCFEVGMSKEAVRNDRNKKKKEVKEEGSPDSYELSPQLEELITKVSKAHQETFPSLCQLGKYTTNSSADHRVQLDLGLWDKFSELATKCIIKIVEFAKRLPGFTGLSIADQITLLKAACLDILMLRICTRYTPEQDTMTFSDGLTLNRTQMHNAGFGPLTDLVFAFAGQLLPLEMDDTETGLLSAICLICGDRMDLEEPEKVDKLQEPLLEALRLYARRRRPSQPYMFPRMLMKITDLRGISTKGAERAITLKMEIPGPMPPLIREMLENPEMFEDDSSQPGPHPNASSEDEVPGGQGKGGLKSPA
Source text: as §1, §2

RXRγ [3] = biological target: T1, RXRγ; assay: RXRγ receptor transactivation (Table 1); assay type: cell-based; conditions: RXR γ; for Emax: read-out: % Eff
Source text: as §1, §3

RARα = biological target: T4, RARα (Homo sapiens, UniProt P10276); assay: RARα ligand binding (Table 2); conditions: RAR α
T4 sequence (P10276 1-462): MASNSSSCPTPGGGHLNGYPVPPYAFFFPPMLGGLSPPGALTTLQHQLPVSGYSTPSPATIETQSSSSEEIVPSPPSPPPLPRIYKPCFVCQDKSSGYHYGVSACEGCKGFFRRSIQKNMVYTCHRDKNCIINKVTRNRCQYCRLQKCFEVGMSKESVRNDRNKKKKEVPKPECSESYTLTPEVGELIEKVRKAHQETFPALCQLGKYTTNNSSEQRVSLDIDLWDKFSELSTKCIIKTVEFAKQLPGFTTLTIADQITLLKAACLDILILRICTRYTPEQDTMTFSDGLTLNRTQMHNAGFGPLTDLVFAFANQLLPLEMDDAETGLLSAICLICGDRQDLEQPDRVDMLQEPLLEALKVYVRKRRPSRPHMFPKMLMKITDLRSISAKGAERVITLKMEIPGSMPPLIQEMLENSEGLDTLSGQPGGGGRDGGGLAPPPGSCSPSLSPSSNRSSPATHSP
Source text: as §1, §2

RARβ = biological target: T5, RARβ (Homo sapiens, UniProt P10826); assay: RARβ ligand binding (Table 2); conditions: RAR β
T5 sequence (P10826 1-448 isoform P10826-2): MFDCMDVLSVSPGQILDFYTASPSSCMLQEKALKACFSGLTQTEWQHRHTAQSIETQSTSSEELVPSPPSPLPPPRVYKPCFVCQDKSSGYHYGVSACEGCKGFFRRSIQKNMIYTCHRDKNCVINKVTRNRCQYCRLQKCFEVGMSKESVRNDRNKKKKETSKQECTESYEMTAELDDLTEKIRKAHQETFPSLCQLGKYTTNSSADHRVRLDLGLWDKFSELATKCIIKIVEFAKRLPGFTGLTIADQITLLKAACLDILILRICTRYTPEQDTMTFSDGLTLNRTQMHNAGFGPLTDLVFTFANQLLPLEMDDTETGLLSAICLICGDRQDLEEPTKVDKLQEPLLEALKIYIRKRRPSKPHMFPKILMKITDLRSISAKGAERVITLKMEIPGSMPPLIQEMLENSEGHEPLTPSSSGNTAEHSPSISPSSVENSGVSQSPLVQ
Source text: as §1, §2

RXRα [4] = biological target: T2, RXRα; assay: RXRα ligand binding (Table 1); conditions: RXR α
Source text: as §1, §2

RXRβ = biological target: T6, RXRβ (Mus musculus, UniProt P28704); assay: RXRβ receptor transactivation (Table 1); assay type: cell-based; conditions: RXR β; for Emax: read-out: % Eff
T6 construct: expressed in transfected cells
T6 sequence (P28704 1-520): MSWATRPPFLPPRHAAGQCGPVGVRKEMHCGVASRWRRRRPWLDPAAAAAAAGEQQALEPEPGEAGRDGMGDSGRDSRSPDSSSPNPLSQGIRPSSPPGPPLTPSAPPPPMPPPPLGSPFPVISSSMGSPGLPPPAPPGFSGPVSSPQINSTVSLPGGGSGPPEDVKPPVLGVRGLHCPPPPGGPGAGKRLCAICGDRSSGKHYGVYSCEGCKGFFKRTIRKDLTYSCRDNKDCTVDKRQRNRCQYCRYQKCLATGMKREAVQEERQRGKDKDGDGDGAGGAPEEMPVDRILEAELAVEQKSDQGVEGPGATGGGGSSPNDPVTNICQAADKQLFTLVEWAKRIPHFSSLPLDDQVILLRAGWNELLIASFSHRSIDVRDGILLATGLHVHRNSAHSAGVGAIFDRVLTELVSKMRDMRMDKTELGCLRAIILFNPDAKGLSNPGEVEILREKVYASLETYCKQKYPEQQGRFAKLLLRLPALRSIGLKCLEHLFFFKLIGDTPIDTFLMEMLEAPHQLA
Source text: as §1, §3

CC(/C=C/[C@@H]1C[C@]1(C)c1ccc2c(c1)C(C)(C)CCN2C(=O)OC(C)(C)C)=C\C(=O)O [Compound 17]
Kd (RXRγ [1]): 4.1 nM
EC50 (RXRα [2]): 0.15 nM
Emax (RXRα [2]): 110%
Kd (RARγ): 12000 nM
EC50 (RXRγ [3]): 0.31 nM
Emax (RXRγ [3]): 101%
Kd (RARα): > 30000 nM
Kd (RARβ): 10000 nM
Kd (RXRα [4]): 0.35 nM
EC50 (RXRβ): 0.42 nM
Emax (RXRβ): 115%

CC(/C=C/[C@@H]1C[C@]1(C)c1ccc2c(c1)C(C)(C)CC(=S)N2C(C)C)=C\C(=O)O [Compound 2, (6S,7S)-7-(4,4-Dimethyl-1-(2-propyl)-2-thioxo-1,2,3,4-tetrahydroquinolin-6-yl)-6,7-methano-3-methyl-octa-2E,4E-dienoic acid]
Kd (RXRγ [1]): 10.5 nM
EC50 (RXRα [2]): 0.064 nM
Emax (RXRα [2]): 160%
Kd (RARγ): 25000 nM
EC50 (RXRγ [3]): 0.059 nM
Emax (RXRγ [3]): 137%
Kd (RARα): 27000 nM
Kd (RARβ): 31000 nM
Kd (RXRα [4]): 0.97 nM
EC50 (RXRβ): 0.376 nM
Emax (RXRβ): 144%

CC(/C=C/[C@@H]1C[C@]1(C)c1ccc2c(c1)C(C)(C)CC(=O)N2C(C)C)=C\C(=O)O [Compound 1, (6S,7S)-7-(4,4-Dimethyl-2-oxo-1-(2-propyl)-1,2,3,4-tetrahydroquinolin-6-yl)-6,7-methano-3-methyl-octa-2E,4E-dienoic acid]
Kd (RXRγ [1]): 3.1 nM
EC50 (RXRα [2]): 0.077 nM
Emax (RXRα [2]): 107%
Kd (RARγ): > 10000 nM
EC50 (RXRγ [3]): 0.085 nM
Emax (RXRγ [3]): 115%
Kd (RARα): > 10000 nM
Kd (RARβ): > 10000 nM
Kd (RXRα [4]): 1.4 nM
EC50 (RXRβ): 0.627 nM
Emax (RXRβ): 109%
